Test results: the NIST ThermoML archive (doi:10.1016/j.jct.2012.06.015)
Numbers after ± are expanded uncertainties.

Test: xn = mol fraction of the nth substance listed
Details: 101 kPa, Liquid, Vibrating tube method

SMILES: Cn1ccnc1 [1-methylimidazole] + O
- mass density (288.15 K, x1 = 0.0443): 1010.2 ± 0.2 kg/m3
- mass density (288.15 K, x1 = 0.1036): 1022.1 ± 0.2 kg/m3
- mass density (288.15 K, x1 = 0.2167): 1037.4 ± 0.2 kg/m3
- mass density (288.15 K, x1 = 0.3003): 1044.4 ± 0.2 kg/m3
- mass density (288.15 K, x1 = 0.4024): 1048.9 ± 0.2 kg/m3
- mass density (288.15 K, x1 = 0.4982): 1050.2 ± 0.2 kg/m3
- mass density (288.15 K, x1 = 0.5902): 1049.3 ± 0.3 kg/m3
- mass density (288.15 K, x1 = 0.7159): 1046.7 ± 0.3 kg/m3
- mass density (288.15 K, x1 = 0.7795): 1044.7 ± 0.3 kg/m3
- mass density (288.15 K, x1 = 0.8907): 1041.8 ± 0.3 kg/m3
- mass density (288.15 K, x1 = 1): 1039.4 ± 0.3 kg/m3
- mass density (293.15 K, x1 = 0.0443): 1008.3 ± 0.2 kg/m3
- mass density (293.15 K, x1 = 0.1036): 1019.3 ± 0.2 kg/m3
- mass density (293.15 K, x1 = 0.2167): 1033.7 ± 0.2 kg/m3
- mass density (293.15 K, x1 = 0.3003): 1040.3 ± 0.2 kg/m3
- mass density (293.15 K, x1 = 0.4024): 1044.6 ± 0.2 kg/m3
- mass density (293.15 K, x1 = 0.4982): 1045.8 ± 0.3 kg/m3
- mass density (293.15 K, x1 = 0.5902): 1044.7 ± 0.3 kg/m3
- mass density (293.15 K, x1 = 0.7159): 1042.2 ± 0.3 kg/m3
- mass density (293.15 K, x1 = 0.7795): 1040.2 ± 0.3 kg/m3
- mass density (293.15 K, x1 = 0.8907): 1037.4 ± 0.3 kg/m3
- mass density (293.15 K, x1 = 1): 1035 ± 0.3 kg/m3
- mass density (298.15 K, x1 = 0.0443): 1006.2 ± 0.2 kg/m3
- mass density (298.15 K, x1 = 0.1036): 1016.5 ± 0.2 kg/m3
- mass density (298.15 K, x1 = 0.2167): 1030.1 ± 0.2 kg/m3
- mass density (298.15 K, x1 = 0.3003): 1036.3 ± 0.2 kg/m3
- mass density (298.15 K, x1 = 0.4024): 1040.5 ± 0.2 kg/m3
- mass density (298.15 K, x1 = 0.4982): 1041.6 ± 0.3 kg/m3
- mass density (298.15 K, x1 = 0.5902): 1040.5 ± 0.3 kg/m3
- mass density (298.15 K, x1 = 0.7159): 1038 ± 0.3 kg/m3
- mass density (298.15 K, x1 = 0.7795): 1036 ± 0.3 kg/m3
- mass density (298.15 K, x1 = 0.8907): 1033.3 ± 0.3 kg/m3
- mass density (298.15 K, x1 = 1): 1030.9 ± 0.3 kg/m3
- mass density (303.15 K, x1 = 0.0443): 1003.9 ± 0.2 kg/m3
- mass density (303.15 K, x1 = 0.1036): 1013.3 ± 0.2 kg/m3
- mass density (303.15 K, x1 = 0.2167): 1026 ± 0.2 kg/m3
- mass density (303.15 K, x1 = 0.3003): 1031.9 ± 0.2 kg/m3
- mass density (303.15 K, x1 = 0.4024): 1035.9 ± 0.2 kg/m3
- mass density (303.15 K, x1 = 0.4982): 1036.8 ± 0.3 kg/m3
- mass density (303.15 K, x1 = 0.5902): 1035.7 ± 0.3 kg/m3
- mass density (303.15 K, x1 = 0.7159): 1033.2 ± 0.3 kg/m3
- mass density (303.15 K, x1 = 0.7795): 1031.2 ± 0.3 kg/m3
- mass density (303.15 K, x1 = 0.8907): 1028.5 ± 0.3 kg/m3
- mass density (303.15 K, x1 = 1): 1026.1 ± 0.3 kg/m3
- mass density (308.15 K, x1 = 0.0443): 1001.6 ± 0.2 kg/m3
- mass density (308.15 K, x1 = 0.1036): 1010.2 ± 0.2 kg/m3
- mass density (308.15 K, x1 = 0.2167): 1022.1 ± 0.2 kg/m3
- mass density (308.15 K, x1 = 0.3003): 1027.8 ± 0.2 kg/m3
- mass density (308.15 K, x1 = 0.4024): 1031.5 ± 0.2 kg/m3
- mass density (308.15 K, x1 = 0.4982): 1032.4 ± 0.2 kg/m3
- mass density (308.15 K, x1 = 0.5902): 1031.3 ± 0.3 kg/m3
- mass density (308.15 K, x1 = 0.7159): 1028.8 ± 0.3 kg/m3
- mass density (308.15 K, x1 = 0.7795): 1026.8 ± 0.3 kg/m3
- mass density (308.15 K, x1 = 0.8907): 1024.1 ± 0.3 kg/m3
- mass density (308.15 K, x1 = 1): 1021.7 ± 0.3 kg/m3
- mass density (313.15 K, x1 = 0.0443): 999.2 ± 0.2 kg/m3
- mass density (313.15 K, x1 = 0.1036): 1007.1 ± 0.2 kg/m3
- mass density (313.15 K, x1 = 0.2167): 1018.2 ± 0.2 kg/m3
- mass density (313.15 K, x1 = 0.3003): 1023.6 ± 0.2 kg/m3
- mass density (313.15 K, x1 = 0.4024): 1027.2 ± 0.2 kg/m3
- mass density (313.15 K, x1 = 0.4982): 1028 ± 0.2 kg/m3
- mass density (313.15 K, x1 = 0.5902): 1026.9 ± 0.3 kg/m3
- mass density (313.15 K, x1 = 0.7159): 1024.4 ± 0.3 kg/m3
- mass density (313.15 K, x1 = 0.7795): 1022.4 ± 0.3 kg/m3
- mass density (313.15 K, x1 = 0.8907): 1019.7 ± 0.3 kg/m3
- mass density (313.15 K, x1 = 1): 1017.3 ± 0.3 kg/m3
- mass density (318.15 K, x1 = 0.0443): 996.6 ± 0.2 kg/m3
- mass density (318.15 K, x1 = 0.1036): 1003.9 ± 0.2 kg/m3
- mass density (318.15 K, x1 = 0.2167): 1014.3 ± 0.2 kg/m3
- mass density (318.15 K, x1 = 0.3003): 1019.3 ± 0.2 kg/m3
- mass density (318.15 K, x1 = 0.4024): 1022.7 ± 0.2 kg/m3
- mass density (318.15 K, x1 = 0.4982): 1023.5 ± 0.2 kg/m3
- mass density (318.15 K, x1 = 0.5902): 1022.5 ± 0.3 kg/m3
- mass density (318.15 K, x1 = 0.7159): 1020 ± 0.3 kg/m3
- mass density (318.15 K, x1 = 0.7795): 1018 ± 0.3 kg/m3
- mass density (318.15 K, x1 = 0.8907): 1015.3 ± 0.3 kg/m3
- mass density (318.15 K, x1 = 1): 1012.9 ± 0.3 kg/m3
- mass density (323.15 K, x1 = 0.0443): 994.2 ± 0.2 kg/m3
- mass density (323.15 K, x1 = 0.1036): 1000.9 ± 0.2 kg/m3
- mass density (323.15 K, x1 = 0.2167): 1010.6 ± 0.2 kg/m3
- mass density (323.15 K, x1 = 0.3003): 1015.4 ± 0.2 kg/m3
- mass density (323.15 K, x1 = 0.4024): 1018.6 ± 0.2 kg/m3
- mass density (323.15 K, x1 = 0.4982): 1019.3 ± 0.2 kg/m3
- mass density (323.15 K, x1 = 0.5902): 1018.4 ± 0.3 kg/m3
- mass density (323.15 K, x1 = 0.7159): 1015.9 ± 0.3 kg/m3
- mass density (323.15 K, x1 = 0.7795): 1013.9 ± 0.3 kg/m3
- mass density (323.15 K, x1 = 0.8907): 1011.2 ± 0.3 kg/m3
- mass density (323.15 K, x1 = 1): 1008.8 ± 0.3 kg/m3

SMILES: O [water] + Cn1ccnc1
- mass density (318.15 K, x2 = 0): 990.1 ± 0.2 kg/m3
